The record followed here is US4666934A, “Prostaglandin analogs” (The Upjohn Company, priority 1985, dated 1987).

Type in all cases: physicochemical
Data set [1] is described as follows: Characterizability (passes profile; moisture content after air equilibration). Particulars: for Characterizability (passes profile): Table I.
A further data set in a line: Water solubility. Particulars: for Water solubility: in words.
A short description of data set [2]: Trichlorotrifluoroethane solubility. As to the method:
The solubility of the compounds in trichlorotrifluoroethane, a high molecular weight fluorochlorinated alkane liquid propellant, was determined as follows. Suspensions of each compound were prepared at concentrations of ~1 mg/ml in trichlorotrifluoroethane in 30 ml glass vials sealed using polytetrafluoroethylene lined caps. These vials were wrapped with aluminum foil and shaken at ~25° C. After 26 days shaking the samples were filtered. Three successive 5 ml fractions were collected from the filter and analyzed to test for adsorption. (No adsorption was observed.)
The 5 ml samples were transferred to 5 ml volumetric flasks and solvent was evaporated under nitrogen. The residue was redissolved in 1 ml methanol and diluted to 5 ml with 30% CH3 CN. Samples were assayed by high pressure liquid chromatography.

A further data set is described as follows: Solid-state stability. Particulars: for Solid state stability (degradation): 2 months at 33° C., 87600 min; for Solid-state stability (visual observation): 75% R.H., 30°, same = as at day 0. Here is the method: (§1) The solid-state stability studies were performed as follows. Approximately 10-15 mg of the free acid or a salt was placed in either clear glass vials or amber vials wrapped in aluminum foil and stored under various conditions as listed below:
(a) Refrigerated at about 4° C. (dark).
(b) High Intensity Light Box at about 33° C. and relative humidity <15%. (Light Box contained 6-15 watt fluorescent bulbs 41/2 inches above the powder surface.) Sample vials were placed on their sides with powder spread evenly on the vial wall.
(c) 30° C./75% relative humidity/dark-vials were capped loosely.
(§2) At various times, 1-1.5 mg samples were dissolved in methanol, diluted to a prescribed volume with water, and analyzed by high pressure liquid chromatography versus reference standard of the free acid stored at -20° C. Chromatographic conditions were similar to those described previously.

A short description of data set [3]: Stability suspended in trichlorotrifluoroethane. Particulars: dark, 30°. Here is the method: as §1
(d) Suspended in […] and shaken continuously for 26 days.
as §2

Data set [4] in a line: Specific gravity (volume displacement, pycnometer). Particulars: 20° C., acetonitrile. As to the method:
To obtain specific gravity data approximate densities were obtained using a volume displacement procedure. To a 5 ml weighed pycnometer was added 200-300 mg of salt and acetonitrile added to fill. The salt suspensions were sonicated to remove entrapped air and equilibrated to 20° C. in a water bath. The salt densities were estimated by standard methods of calculation.

Values after ≈ are worked out from the molar mass of the structure shown. Where a name gives a salt, the structure may show the parent alone.

As for `CCCCC[C@H](O)/C=C/[C@@H]1c2cc(CCCCC(=O)O)n(-c3ccccc3)c2C[C@H]1O` [Free Acid, 6,9-deepoxy-6,9-(phenylimino)-Δ6,8-prostaglandin I1, reference compound], the “Characterizability (passes profile)” value in data set [1] was “Pass”. Besides, the solubility (as a rule, the concentration that dissolves in the medium under given conditions) in “Water solubility” (water, Table I, numeric) amounted to 1 µg/mL (≈ 2.35 µM). The solubility at 624 h in data set [2] (trichlorotrifluoroethane, organic solvent or mixture, ~25° C., 26 days shaking) worked out at 0.38 µg/mL (≈ 0.893 µM). For the same molecule, the “Solid state stability (degradation)” value in “Solid-state stability” is recorded as greater than 10%. Also, the Solid-state stability in the data set “Solid-state stability” (Dark, 33°, 0 days) is 100% of Theory; in “Solid-state stability” (Dark, 33°, 19 days, 27360 min) it was 98% of Theory; in “Solid-state stability” (Dark, 33°, 189 days, 272160 min), 65% of Theory; in the data set “Solid-state stability” (Dark, 33°, 289 days, 416160 min), 46% of Theory; in “Solid-state stability” (Dark, 33°, 405 days, 583200 min) it was 19% of Theory; in the data set “Solid-state stability” (High intensity light, 33°, relative humidity <15%, 0 days), 100% of Theory. The Solid-state stability in “Solid-state stability” (High intensity light, 33°, relative humidity <15%, 19 days, 27360 min) is reported as 55% of Theory. Further, in “Solid-state stability” (Dark, 19 days), the “Solid-state stability (visual observation)” value is recorded as “same”. Besides, in the data set “Solid-state stability” (solid state, Dark, 33°, 40 days), the remaining at 960 h was determined as 94%. In addition, the remaining at 1584 h in the data set “Solid-state stability” (solid state, Dark, 33°, 66 days) is 89%. Also, in data set [3] (0 days), the “Stability in trichlorotrifluoroethane suspension” value was 100% of Theory. The remaining at 624 h in data set [3] (trichlorotrifluoroethane, 26 days, read-out: Stability in trichlorotrifluoroethane suspension) was determined as 94%.

With `CCCCC[C@H](O)/C=C/[C@@H]1c2cc(CCCCC(=O)O)n(-c3ccccc3)c2C[C@H]1O` [Potassium Salt, 6,9-Deepoxy-6,9-(phenylimino)-Δ6,8-prostaglandin I1, potassium salt], the “Characterizability (passes profile)” value in data set [1] (potassium salt) is recorded as “Pass”. In data set [1] (potassium salt), the “moisture content after air equilibration” value is “.42 % H2O”. For the same molecule, the Water solubility result in the data set “Water solubility” (listed as potassium salt, potassium salt) was “high water solubility”; in “Water solubility” (potassium salt), “Soluble”. Also, the “Solubility in fluorinated and fluorochlorinated liquified propellants” value in data set [2] (as compared to the free acid, in words) is “low solubility in fluorinated and fluorochlorinated liquified propellants”. Also, in data set [2] (~25° C., 26 days shaking, potassium salt, 37440 min), the Trichlorotrifluoroethane solubility worked out at 0.43 µg/mL. For the same molecule, the “Solid state stability (degradation)” value in “Solid-state stability” (potassium salt) was less than 2%. Besides, the Solid-state stability in “Solid-state stability” (Dark, 4°, 0 days, potassium salt) was 100% of Theory; in the data set “Solid-state stability” (Dark, 33°, 0 days, potassium salt), 100% of Theory; in “Solid-state stability” (Dark, 33°, 19 days, potassium salt, 27360 min), 100% of Theory; in “Solid-state stability” (Dark, 33°, 40 days, potassium salt, 57600 min) it was 100% of Theory; in “Solid-state stability” (Dark, 33°, 66 days, potassium salt, 95040 min) it was 100% of Theory; in “Solid-state stability” (Dark, 33°, 289 days, potassium salt, 416160 min) it was 96% of Theory. The Solid-state stability in the data set “Solid-state stability” (Dark, 33°, 405 days, potassium salt, 583200 min) was 96% of Theory; in “Solid-state stability” (High intensity light, 33°, relative humidity <15%, 0 days, potassium salt) it was 100% of Theory; in “Solid-state stability” (High intensity light, 33°, relative humidity <15%, 19 days, potassium salt, 27360 min) it was 48% of Theory; in “Solid-state stability” (in words, over the free acid or the sodium salt), “improved solid-state stability over the free acid or the sodium salt”. Also, the “Solid-state stability (visual observation)” value in “Solid-state stability” (Dark, 19 days, potassium salt) is “glass”. Besides, the “Rank order of stability” value in the data set “Solid-state stability” (protected from light, 33°) was “potassium salt>free acid>sodium salt”. Further, the remaining at 1584 h in “Solid-state stability” (solid state, Dark, 4°, 66 days) turned out to be 102%. In addition, in “Solid-state stability” (solid state, Dark, 4°, 189 days), the remaining at 4536 h was found to be 101%. The remaining at 2400 h in the data set “Solid-state stability” (solid state, Dark, 33°, 100 days) came to 97%. The remaining at 5184 h in the data set “Solid-state stability” (solid state, Dark, 33°, 216 days) amounted to 98%. Also, the Specific gravity in data set [4] (potassium salt) is 1.20. Moreover, the “Stability in trichlorotrifluoroethane suspension” value in data set [3] (26 days, potassium salt, 37440 min) was 100% of Theory.

Turning to `CCCCC[C@H](O)/C=C/[C@@H]1c2cc(CCCCC(=O)O)n(-c3ccccc3)c2C[C@H]1O` [Sodium Salt, 6,9-Deepoxy-6,9-(phenylimino)-Δ6,8-prostaglandin I1, sodium salt], the “Characterizability (passes profile)” value in data set [1] (sodium salt) is listed as “Initial analysis acceptable but later assays (HPLC) unacceptable”. The “moisture content after air equilibration” value in data set [1] (sodium salt) was “.82 % H2O”. For the same molecule, the Water solubility result in “Water solubility” (sodium salt) is listed as “Soluble”. For the same molecule, the “Solid state stability (degradation)” value in “Solid-state stability” (sodium salt) is on record as greater than 50%. For the same molecule, the Solid-state stability in the data set “Solid-state stability” (Dark, 4°, 0 days, sodium salt) is on record as 101% of Theory; in the data set “Solid-state stability” (Dark, 33°, 0 days, sodium salt), 101% of Theory; in “Solid-state stability” (Dark, 33°, 19 days, sodium salt, 27360 min) it was 61% of Theory; in the data set “Solid-state stability” (High intensity light, 33°, relative humidity <15%, 0 days, sodium salt), 101% of Theory; in the data set “Solid-state stability” (High intensity light, 33°, relative humidity <15%, 19 days, sodium salt, 27360 min), 3% of Theory. Also, the “Solid-state stability (visual observation)” value in the data set “Solid-state stability” (Dark, 19 days, sodium salt) is “same”. Moreover, in the data set “Solid-state stability” (solid state, Dark, 4°, 19 days), the remaining at 456 h turned out to be 87%. In addition, in the data set “Solid-state stability” (solid state, Dark, 4°, 46 days), the remaining at 1104 h came out at 77%. For the same molecule, the Specific gravity in data set [4] (sodium salt) was 1.18.
